# Results as given in patent publication EP4613274A1, “SENOLYTIC COMPOUNDS” (Freie Universität Berlin, priority 2024, dated 2025).
# How the values were obtained:
# [1] = test system: Primary mouse embryo fibroblasts (MEF); test: Viability of rotenone-treated MEF with raised cellular NADH (dye exclusion assay); assay type: cell-based; conditions: 500 nM rotenone 2 h prior to POG exposure (1 µM), viability 22 h later
# Description: Increasing cellular NADH levels sensitizes cells towards POG-mediated killing in a H2O2-dependent fashion. Primary mouse embryo fibroblasts (MEF) were stably transduced with a catalase-overexpressing retrovirus or empty virus and exposed to 500 nM rotenone (an NADH dehydrogenase inhibitor used to increase cellular NADH levels via inhibition of the mitochondrial complex I) 2 h prior to POG exposure (1 µM) before measuring cell viabilities 22 h later using a dye exclusion assay (Ghost Dye Red 780, 13-0865-T500, Tonbo). Figure 5 illustrates the results in form of means ± standard deviation (SD).
# [2] = test system: A549; test: Virus-induced senescence (VIS) model, dye exclusion viability test; assay type: cell-based, human; conditions: lentivirus MOI = 50, POG-4 for 22 h
# Description: VIS: The human alveolar epithelial adenocarcinom cell line A549 as well as VIS-deficient VeroB4 cells were infected with a high-titer GFP-expressing lentivirus (pCDH-CMV-MCS-EF1-GFP; MOI = 50) to induce VIS.
# (§1) All cells were analyzed at day 10 after start of the treatment and oncogene induction, respectively. Shown in grey in the first (left) column are mean percentages of senescence-associated beta-galactosidase (SA-β-gal)-)positive cells for each treatment. Proliferating cells and their senescent counterpart were exposed to the same increasing concentrations of POG (from left to right: murine Eµ-myc lymphoma cells and primary mouse fibroblasts = 0, 0.2, 0.4, 0.8, and 1.2 µM) POG, for VIS and RS = 0, 2, 3, 4, and 5 µM) POG, and for all others = 0, 1, 2, 3, and 4 µM) POG) for 22 h before measuring their viabilities using a dye exclusion test.
# The adenocarcinomic alveolar epithelial cell line A549 as well as VIS-deficient VeroB4 cells were infected with a high-titer GFP-expressing lentivirus (pCDH-CMV-MCS-EF1-GFP; multiplicity of infection [MOI] = 50). At day 6, the cells were stained for SA-β-gal before treating them with increasing concentrations of POG-4. After 22 h, the cell viability was measured using a dye exclusion test. Figure 12 illustrates means ± SD.
# [3] = test system: Primary mouse fibroblasts (MEF); test: NMU-induced transformation of MEF, soft-agar colony formation; assay type: cell-based; conditions: 2 mM NMU for 5 weeks, POG-4 1.0 µM, 10 weeks in 0.3 % soft-agar
# Description: Primary mouse fibroblasts (MEF) were treated for 5 weeks with 2 mM N-nitroso-N-methylurea (NMU) or solvent to mutagenize their genomes. Selective killing of senescent subpopulation was assessed by measuring the percentage of SA-β-gal positive cells after POG-4 exposure (1.0 µM for 22 h). […] 2 × 10^4 of viable NMU-pre-treated MEF with or without subsequent POG-4 exposure (1.0 µM) from the experiment of Figure 9A were seeded in 0.3 % soft-agar and cultivated for 10 weeks, before formation of colonies (>50 cells/colony) was quantified. Again, means ± SD are illustrated POG-mediated senolysis of DMBA-induced OIS cells was tested; the results are depicted in Figure 10. Like NMU, 7,12-dimethyl-benzoanthracen (DMBA) is known to induce oncogenic mutations across all Ras isoforms. MEF were mutagenized with DMBA (0.25 µg/ml) for 7 days before cells were exposed to increasing concentrations of POG 1 week later. Cell viabilities were measured 22 h later using a dye exclusion assay (right; (Ghost Dye Red 780, 13-0865-T500, Tonbo). SA-β-gal stainings (left) were performed 2 days after POG exposure. Filled circles denote experiments conducted with solvent; filled squares denote experiments conducted with DMBA.
# [4] = test system: Liver cell preparations; test: Ex vivo treatment of liver cell preparations (SA-β-gal, TUNEL, DAPI staining); assay type: cell-based, C57/BL6 mice; conditions: old (20-months old) mice, ex vivo 22 h, POG 1.5 µM
# Description: Liver cell preparations from young (10-weeks old) and old (20-months old) C57/BL6 mice were treated ex vivo for 22 h with POG (1.5 µM) or solvent. Cells were fixed and stained for SA-β-gal, TUNEL (Terminal deoxynucleotidyl transferase dUTP nick end labeling) and DAPI (4',6-diamidino-2-phenylindole). Percentage of senescent (SA-β-gal-positive) cells present in the viable (TUNEL-negative) liver cell population (Figure 8A) and overall viability of the liver cell population (Figure 8B) was quantified via fluorescence microscopy.
# [5] = test system: hydrogen peroxide; test: Europium-tetracycline (EuTc) fluorescence assay for hydrogen peroxide generation; assay type: biochemical
# From the text: For a confirmation of the POG redox cycling, hydrogen peroxide formed by peroxygenin from elemental oxygen was quantified. For this purpose, a fluorescence-based europium tetracycline assay in 3-(N-morpholino)propanesulfonic acid (MOPS) buffer at pH 6.9, close to the physiological pH, was adapted for monitoring of hydrogen peroxide released from POG-4 (Wolfbeis et al., 2002; Dürkop et al., 2005; Wu et al., 2005; Schrenkhammer et al., 2007) Reportedly, this assay is based on the formation of an quaternary pentagonal bipyramidal Eu(III)-tetracycline (Tc) complex of the stoichiometry Eu2Tc2 (Karthikeyan et al., 2004) in which one equivalent of hydrogen peroxide forms a bridged peroxide complex (µ-H2O2 ligand) (Dehaen et al. 2009) and upon excitation at 405 nm fluoresces at 616 nm. First, the sensitivity of the assay toward hydrogen peroxide was investigated. For that, different hydrogen peroxide concentrations, ranging from 10 µM to 1000 µM, were used to analyze the fluorescence signal (Figures 2A and 2B, curves 6 to 14 and 26 to 34; curves 6 and 26:1000 µM, curves 7 and 27: 800 µM, curves 8 and 28: 400 µM, curves 9 and 29: 200 µM, curves 10 and 30: 100 µM, curves 11 and 31: 50 µM, curves 12 and 32: 25 µM, curves 13 and 33: 10 µM, curves 14 and […]).
# Next, the same assay conditions were applied to quantify hydrogen peroxide formation from POG-4 (V3) (referred to in the following simply as POG-4) having the following formula: [drawing 142] […]
# Protocol: The assay was performed in cuvettes with a base area of 1 cm x 1 cm. Measurement of fluorescence intensity was carried out with a fluorescence spectrometer FP-6500 by Jasco at λem = 616 nm (λex = 405 nm). […]
# H2O2 calibration: DTT (10 µL, 200 mM; 1mM final concentration) were added to Eu2Tc2 (2 mL) solution in a cuvette and equilibrated by stirring for 5 min at 37 °C until the fluorescence signal was constant. […] All measurements were repeated three times and a mean was calculated. […]
# [6] = test system: C57/BL6 mice; test: NMU-induced tumorigenesis in vivo (T-cell lymphoma development); conditions: 30 mg NMU/kg i.p. for 5 weeks, POG-4 2 × 0.25 mg kg^-1 i.v. within one week, monitored 300 d; p = 0.0258
# Description: The interference of POG-4 with NMU-induced tumorigenesis was established in vivo (Figure 11). For this purpose, 30 days old C57/BL6 mice were mutagenized for 5 consecutive weeks with 30 mg NMU/kg bodyweight (b.w.) intraperitoneally (i.p.) prior to treatment with POG-4 (2 × 0.25 mg kg^-1 body weight intravenously (i.v.) injected within one week) or solvent, respectively. The mice were subsequently monitored for 300 d and T-cell lymphoma development was plotted as the time between first NMU treatment and tumor manifestation in a Kaplan Meier format. Log-rank [Mantel-Cox] test was used to compare solvent- and POG-treated cohorts.
# [7] = test system: C57/BL6 mice; test: Rotarod performance test in aged mice; assay type: in vivo; conditions: 10-months old mice, 0.25 mg/kg body weight i.v. twice every fortnight, rotarod one month later, versus solvent
# Description: To quantify the global impact of POG on age-related physical decline, a rotarod performance test was conducted, which captures the time mice can run on a rotating rod before falling off due to exhaustion.
# For the experiments, the results of which are shown in Figure 7A, C57/BL6 mice (10-months old, "old mice") were treated twice with POG (0.25 mg/kg body weight, i.v. injected every fortnight; n = 11) or solvent (n = 11), before their physical performance was assessed using a rotarod device one month later (from 4 to 40 rpm in 180 s; acceleration rate: 0.2 rpm/s). For comparison a cohort of untreated young mice (8-weeks old; n = 10) was measured in parallel. Each datapoint represents the maximum time the (previously trained) animal was able to remain on the rotating rod from 5 consecutive runs per mouse.
# [8] = test system: Eµ-myc transgenic lymphomas; test: Overall survival of CTX-treated lymphoma-bearing mice with sequential POG exposure; assay type: in vivo; conditions: CTX 1 × 300 mg/kg i.p. then POG 2 × 0.25 mg/kg i.v.
# Description: The inventors also analyzed the impact of a sequential POG exposure on overall survival in chemotherapy-exposed mice bearing senescence-capable vs. senescence-incapable lymphomas. […] In essence, POG treatment led to reduction of senescent cells in vivo, and extended healthy lifespan of aged and anticancer-treated mice.
# CTX treatment: 1 × 300 mg/kg body weight via i.p., POG treatment: 2 × 0.25 mg/kg body weight via the i.v. application route. Figure 7B illustrates means ± SD, wherein an unpaired two-tailed Student's t test was done for statistical analysis (*P < 0.05).
# [9] = test system: Eµ-myc;Bcl2 lymphoma cells; test: 22-hours cytotoxicity assay (dye exclusion) in therapy-induced senescence (TIS) model; assay type: cell-based, murine; conditions: ADR 0.02 µg/ml for 10 d; for senolytic activity in senescent cells protected by expression of catalase: catalase overexpression, POG for 22 h
# Description: TIS: Eµ-myc;Bcl2 lymphoma cells (with or without catalase overexpression) and senescence-/p53-deficient Eµ-myc; Bcl2 lymphoma cells were treated with ADR (0.02 µg/ml) or solvent.
# as §1
# Viability of solvent-treated cells were set to 100% for each treatment and viabilities of POG-treated cells were normalized relative to solvent-treated controls.
# The senescent state was documented by specific measurement of increased SA-β-galactosidase activity. […] Eµ-myc;Bcl2 lymphoma cells (with or without ectopic catalase overexpression, introduced via stable retroviral gene transfer) and senescence-/p53-deficient Eµ-myc;Bcl2 lymphoma cells were treated with ADR (0.02 µg/ml) or solvent for 10 d. Proliferating cells and their senescent counterpart were exposed to the same increasing concentrations of POG for 22 h before measuring their viabilities using a dye exclusion test (Ghost Dye Red 780, 13-0865-T500, Tonbo). Viability of solvent-treated cells were set to 100% for each treatment and viabilities of POG-treated cells were normalized relative to solvent-treated controls.
smiles,measurement,setting,value
"Cn1nc(/C=C/c2ccccc2)nc2c(=O)n(C)c(=O)nc1-2 [POG-4, (E)-1,6-Dimethyl-3-styrylpyrimido[5,4-e][1,2,4]triazine-5,7(1H,6H)-dione]",dependence of activity on cellular NADH levels,[1],relied on increased levels of the reducing equivalent (NADH)
same,senolytic activity against virus-induced senescence,[2],exhibit senolytic activity
same,NMU-induced transformation (soft-agar colonies),[3],ablates NMU-induced transformation
same,percentage of senescent liver cells,[4],decreased significantly
same,time at which the maximum concentration was reached,"[5]; 5 µM POG-4, 1 mM NADH",approximately 120 minutes
same,hydrogen peroxide concentration in dependence on NADH concentration,"[5]; POG 1 µM, NADH 0.1 mM to 5 mM",higher hydrogen peroxide concentration
same,generation of H2O2 (fluorescence),"[5]; POG-4 0.1 to 5 µM with 1 mM NADH, MOPS buffer pH 6.9, time frame of 300 min",continuous generation of H2O2
same,NMU-induced tumorigenesis (time to tumor manifestation),[6],interferes with NMU-induced tumorigenesis in vivo
same,running time on rotating rod,[7],significantly extended the running time
same,overall survival,"[8]; senescence-capable p53+/+ Eµ-myc lymphomas, versus DMSO, P = 0.0282",lived significantly longer
same,overall survival,"[8]; senescence-incapable Eµ-myc;p53-null lymphomas, P > 0.05",failed to realize such benefit
same,sensitivity of senescent cells versus non-senescent tumor cells (viability),[9]; then POG for 22 h,significantly more sensitive
same,senolytic activity in senescent cells protected by expression of catalase,[9],did not exhibit senolytic activity
same,senolytic activity in senescent cells protected by expression of catalase,[9]; listed as POG,lack sensitivity
